From patent US9523693B2, “Methods for determining ligand binding to a target protein using a thermal shift assay” (Biotarget Engagement Interest Group AB, priority 2011, dated 2016)
Blank lines part the entries; values can stand above or below the compound they belong to.

Columns and labels:
[1] = biological target: T1, p38α (Homo sapiens, UniProt Q16539); assay: CETSA melting curve in HL-60 cells; type: cell-based; settings: for apparent Tagg value (average±s.d.): 20 μM compound
T1 construct: host or cells: HL-60
Experimental: HL60 cells were expanded in cell culture medium to about 2 million cells per ml, where approximately 120 million cells were required to determine four melting curves. 15 ml of the 2 million HL60 cells/ml of suspension were added to four separate T75 flasks. […] The same volume of DMSO was added to the remaining flask as a control. The cell suspensions were mixed gently by pipetting. […] The cell suspension was then collected and cells were transferred to 15 ml conical tubes. Cell numbers were counted and cell viability assessed. The conical tubes were then centrifuged at 300 g for 3 minutes at room temperature to pellet the cells and the culture medium was discarded.
Cell pellets were then resuspended with 15 ml PBS and centrifuged for 3 minutes at 300 g at room temperature. 1 ml of PBS supplemented with protease inhibitors was added to each tube and the pellet resuspended. Each cell suspension was distributed into ten different 0.2 ml PCR tubes with 100 μl of cell suspension in each tube, with each of the ten tubes to be heated at a different temperature.
Immediately after hating, the tubes were removed and incubated at room temperature for 3 minutes. The samples were then snap-frozen.
The tubes were vortexed after being thawed and the cell lysates kept on ice after the last thawing. The cell lysates were then centrifuged at 20000 g for 20 minutes at 4° C. to pellet the cell debris. Finally, 90 μl of lysate was then transferred to a new tube for analysis.
Analysis was carried out using the alphascreen format. […] 4 μl of each solution was transferred from the PCR tubes to a separate well of a 384-well ProxiPlate. 5 μl of acceptor beads were added and the plate sealed with a Thermowell plate seal and agitated for 5 minutes at 500 rpm. The plate was then incubated for 2 hours at room temperature. 2 μl of donor beads were then added an the plate sealed and centrifuged at 100 g at room temperature for 10 seconds. The plate was then agitated for 5 minutes at 500 rpm. The plate was incubated at room temperature for at least 2 hours and chemiluminescence read using an Envision plate reader. […]

[2] = biological target: T1, p38α; assay: Homogeneous AlphaScreen-based CETSA screen in HL-60 cells; type: cell-based; settings: both screen concentrations, 10 and 50 μM, 50° C. 3 min
Experimental: HL-60 cells were expanded in cell culture medium to a density of approximately 1.5-2 million cells/ml. The cell suspension was collected and the cells transferred to 15 ml conical tubes. The tubes were then centrifuged at 300 g for 3 mins at room temperature and the media was discarded. The cell pellet was resuspended in media to a cell density of about 30 million cells/ml. […] The plates are sealed and stored. The Echo 550 acoustic liquid dispenser was used to place 20 nl of the 10 mM DMSO stock solution in each well of four separate Twin tec PCR plates in columns 1-11. […] The plates were shaken every 10 mins.
The plates were placed in a thermal cycler and heated for 3 mins at 50° C. and were then removed and placed in an aluminium block for 3 mins at room temperature.
140 μl of 1× PerkinElmer lysis buffer was added to all wells and the wells were mixed. 4 μl of the samples were transferred to quadrant one of the 384-well ProxiPlate. This was done for all 96-well plates. […] The chemiluminescence was read with a Envision plate reader and evaluated using data processing software as described previously.
The feasibility of applying the homogeneous assay for screen purposes was assessed by testing the homogeneous assay protocol to determine how this responds to the presence of a small set of test compounds taken from a diversity library. […]

[3] = biological target: V600E variant B-raf protein (Homo sapiens, UniProt P15056, V600E); settings: A375 lysate
Experimental: (§1) Lysate was prepared from cultured human A375 cells containing the V600E substitution in B-raf and K562, containing the wild type version thereof. Cells were disrupted on ice in hypotonic buffer and with homogenisation. The suspensions were freeze-thawed multiple times and all insoluble aggregates and cell debris were pelleted by centrifugation after completed lysis. The supernatants containing optically clear cytosolic fraction were each aliquoted into two tubes where each tube contained either the ligand SB590885 dissolved in DMSO or pure DMSO for control. The samples were incubated and subsequently aliquoted into 8-tube PCR strips in fractions of 50 microliters. A series of temperatures were applied to the different samples ranging between +44° C. to +62° C. with 2° C. increments and a 3 minute hold at each temperature. Following heating, the samples were cooled and the precipitated protein pelleted by centrifugation. 20 microliter of each supernatant was removed and supplemented with gel loading buffer and fully denatured by heating. The samples were loaded on a separating gel, which after full run time was blotted onto a nitrocellulose membrane. The membrane was washed and blocked with blocking reagent and probed with primary and secondary antibodies. The signal from the bound secondary antibody was detected by chemiluminescense and recorded with a CCD camera. […]

[4] = biological target: wild-type B-raf protein (Homo sapiens, UniProt P15056); settings: K562 lysate
Experimental: as §1

[5] = biological target: T2, thymidylate synthase (TS) (Homo sapiens, UniProt P04818); assay: Thermal shift in A549 cell lysate, Western blot, TS; type: binding; settings: ligand at 10 times the described IC50
T2 construct: Lysate was prepared from cultured human adenocarcinoma cells (A549); endogenous in cells; host or cells: A549
Description: Cells were disrupted on ice in hypotonic buffer and with homogenisation. The suspensions were freeze-thawed multiple times and all insoluble aggregates and cell debris were pelleted by centrifugation after completed lysis.
The signal from the bound secondary antibody was detected by chemiluminescense and recorded with a CCD camera. The intensities were plotted to visualize the changes in melting temperature following ligand treatment.

[6] = biological target: T3, human soluble PIK3C3 protein (Homo sapiens, UniProt Q8NEB9); assay: Thermal shift (lysis/filtration blot) in E. coli cells overexpressing PIK3C3 construct; type: cell-based; settings: 1 mM Compound 15e or 500 μM Wortmannin, without ligand ca +55°
T3 construct: expressed in transfected cells; host or cells: E. coli
Description: An expression construct of human soluble PIK3C3 protein in an expression vector with N-terminal His-tag was used to investigate a possible increase in melting temperature of the PIK3C3 construct after addition and binding of either of two PIK3C3 specific inhibitors; Wortmannin and Compound 15e. After treatment with or without one of the two inhibitors the cells expressing the PIK3C3 constructs were exposed to a panel of increasing temperatures and after each temperature step the cells expressing the proteins were spotted onto a “lysis/filtration sandwich” soaked in lysis buffer. By using this lysis/filtration step on the “lysis/filtration sandwich” the soluble protein (up to the construct's specific melting temperature) could be detected on a capturing nitrocellulose membrane as dark spots, whereas precipitated protein (i.e., above its specific melting temperature) was not able to pass through the filter membrane and could therefore not be detected. Melting temperatures of constructs treated with Compound 15e or Wortmannin were compared with those of untreated samples. […]

[7] = biological target: methionine-aminopeptidase-2 (Homo sapiens, UniProt P50579); assay: Thermal shift in human K562 cell lysate, Western blot; type: binding
Experimental: (§2) Studies were done on cells from two different systems: a) intact cow liver biopsies incubated with TNP-470 and b) human cultured cells incubated with TNP-470. […] After treatment with or without the inhibitor, the samples were prepared and subjected to an array of increasing temperatures. The precipitated protein fraction was pelleted by means of centrifugation and the supernatant from each temperature step was analysed on gels and by Western blot. Melting temperatures of proteins treated with TNP-470 were compared to those of untreated samples.
(§3) Lysate was prepared for cultured human cells (K562) and cow liver samples by disruption on ice in hypotonic buffer and with homogenisation. The suspensions were freeze-thawed multiple times and all insoluble aggregates and cell debris were pelleted by centrifugation after completed lysis. The lysate of each cell type was divided into two aliquots, where one was supplemented with TNP-470 (dissolved in pure DMSO) and the other with an equivalent volume of pure DMSO. […]
(§4) Next, a series of temperatures were applied to different samples ranging between +56° C. to +88° C. with 2 or 4° C. increments and a 3 minute hold at each step. […] The signal from the bound secondary antibody was detected by chemiluminescense and recorded with a CCD camera. […]

[8] = biological target: T4, methionine-aminopeptidase-2 (Bos taurus, UniProt Q3ZC89); assay: Thermal shift in cow liver lysate, Western blot; type: binding
T4 construct: Lysate was prepared for cultured human cells (K562) and cow liver samples; from tissue; host or cells: cow liver
Experimental: as §2, §3, §4

[9] = biological target: T1, p38α; assay: Isothermal dose-response fingerprint (ITDRF CETSA) in HL-60 cells; type: cell-based; settings: HL-60 cells heated at 50° C.; western blot and AlphaScreen
Experimental: Thus, in this method, HL-60 cells were expanded in cell culture medium to a cell density of 1-2 million cells/ml using standard cell culture. The cell suspension was collected and transferred to 15 ml conical tubes. The conical tubes were centrifuged at 300 g for 3 minutes at room temperature and the medium discarded. The cell pellet was resuspended in fresh media to provide a cell density of approximately 40 million cells/ml. […] 100 DMSO was placed in columns 2-12. The stock solutions were serially diluted by transferring 50 from columns 1 to 2, mixing and then by continuing this process one column at a time until column 11, where a final 50 is removed and discarded. Column 12 acted as a control. A second plate was prepared as a backup by splitting the serial dilutions into the second plate. All the serially diluted solutions were diluted 50 fold by adding cell culture media. 5 μl of all diluted compound solutions were then transferred to a Twin.tec PCR plate. […] The plate was shaken every 10 minutes.
The PCR plate was then incubated in a thermal cycler (Techne) and heated for 3 minutes at 50° C. The plate was then placed in an aluminium block for 3 minutes to ensure consistent cooling.
Detection was then carried out using the AlphaScreen method. […] The Luminescence was read using an Envision plate reader and data software (e.g. GraphPad Orism) was used to evaluate the luminescence data. […]

T1 sequence (Q16539 whole entry): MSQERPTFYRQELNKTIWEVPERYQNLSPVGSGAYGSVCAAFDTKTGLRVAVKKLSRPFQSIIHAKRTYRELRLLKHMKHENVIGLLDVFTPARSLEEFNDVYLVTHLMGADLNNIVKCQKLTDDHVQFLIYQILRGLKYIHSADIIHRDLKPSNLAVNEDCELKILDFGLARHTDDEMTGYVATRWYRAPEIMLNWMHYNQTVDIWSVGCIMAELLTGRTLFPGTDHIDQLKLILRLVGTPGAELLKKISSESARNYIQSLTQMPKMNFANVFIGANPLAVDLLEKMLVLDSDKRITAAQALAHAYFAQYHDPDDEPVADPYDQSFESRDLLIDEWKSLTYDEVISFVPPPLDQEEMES
Chain of methionine-aminopeptidase-2 (Homo sapiens, UniProt P50579) (P50579 whole entry): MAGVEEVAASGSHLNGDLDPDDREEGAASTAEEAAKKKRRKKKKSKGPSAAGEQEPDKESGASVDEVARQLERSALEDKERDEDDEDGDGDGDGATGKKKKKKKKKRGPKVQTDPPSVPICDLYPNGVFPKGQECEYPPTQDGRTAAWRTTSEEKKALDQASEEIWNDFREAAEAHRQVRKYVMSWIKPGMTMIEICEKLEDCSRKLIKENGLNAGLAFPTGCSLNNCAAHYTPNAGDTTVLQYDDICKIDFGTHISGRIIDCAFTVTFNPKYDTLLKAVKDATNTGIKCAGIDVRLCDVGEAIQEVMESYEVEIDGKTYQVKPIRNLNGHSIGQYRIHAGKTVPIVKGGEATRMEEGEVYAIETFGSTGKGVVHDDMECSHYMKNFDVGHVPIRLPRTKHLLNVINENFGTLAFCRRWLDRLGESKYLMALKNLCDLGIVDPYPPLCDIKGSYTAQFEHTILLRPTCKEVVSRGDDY
T4 sequence (Q3ZC89 whole entry): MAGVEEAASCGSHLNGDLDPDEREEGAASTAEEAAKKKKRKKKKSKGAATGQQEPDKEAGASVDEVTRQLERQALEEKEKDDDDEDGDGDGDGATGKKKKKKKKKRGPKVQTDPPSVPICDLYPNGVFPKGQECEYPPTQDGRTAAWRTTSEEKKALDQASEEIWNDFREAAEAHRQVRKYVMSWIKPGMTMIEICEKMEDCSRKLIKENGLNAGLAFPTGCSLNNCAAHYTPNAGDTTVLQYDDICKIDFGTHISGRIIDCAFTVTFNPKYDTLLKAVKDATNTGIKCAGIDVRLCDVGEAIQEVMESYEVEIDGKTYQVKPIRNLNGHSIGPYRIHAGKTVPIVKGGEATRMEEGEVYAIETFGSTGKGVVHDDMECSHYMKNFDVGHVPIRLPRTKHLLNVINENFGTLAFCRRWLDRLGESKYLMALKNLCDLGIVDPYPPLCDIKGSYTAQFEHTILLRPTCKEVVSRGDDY
T3 sequence (Q8NEB9 whole entry): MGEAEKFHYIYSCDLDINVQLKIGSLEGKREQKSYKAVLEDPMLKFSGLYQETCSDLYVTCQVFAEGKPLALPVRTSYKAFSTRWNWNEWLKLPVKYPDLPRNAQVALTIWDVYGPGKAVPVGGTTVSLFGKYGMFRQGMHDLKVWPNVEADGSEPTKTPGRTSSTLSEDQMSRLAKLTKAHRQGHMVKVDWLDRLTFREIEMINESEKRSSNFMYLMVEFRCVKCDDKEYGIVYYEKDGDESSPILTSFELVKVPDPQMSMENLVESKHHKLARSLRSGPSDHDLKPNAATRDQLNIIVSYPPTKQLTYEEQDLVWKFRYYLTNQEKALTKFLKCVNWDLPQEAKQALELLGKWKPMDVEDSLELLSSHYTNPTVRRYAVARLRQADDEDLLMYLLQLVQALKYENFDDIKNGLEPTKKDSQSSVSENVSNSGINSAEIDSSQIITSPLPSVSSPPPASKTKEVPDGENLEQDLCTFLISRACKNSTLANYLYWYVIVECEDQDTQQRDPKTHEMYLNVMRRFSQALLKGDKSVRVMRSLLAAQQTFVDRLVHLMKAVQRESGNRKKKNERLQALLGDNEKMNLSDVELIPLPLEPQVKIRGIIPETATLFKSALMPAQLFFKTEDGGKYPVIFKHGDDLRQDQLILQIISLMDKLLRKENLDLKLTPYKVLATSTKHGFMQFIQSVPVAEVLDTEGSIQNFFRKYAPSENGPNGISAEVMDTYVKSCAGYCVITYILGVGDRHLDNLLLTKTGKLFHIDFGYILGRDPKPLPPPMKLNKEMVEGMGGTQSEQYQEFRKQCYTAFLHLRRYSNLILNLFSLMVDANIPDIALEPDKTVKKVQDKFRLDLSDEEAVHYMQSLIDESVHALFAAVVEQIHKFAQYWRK
Chain of wild-type B-raf protein (P15056 whole entry): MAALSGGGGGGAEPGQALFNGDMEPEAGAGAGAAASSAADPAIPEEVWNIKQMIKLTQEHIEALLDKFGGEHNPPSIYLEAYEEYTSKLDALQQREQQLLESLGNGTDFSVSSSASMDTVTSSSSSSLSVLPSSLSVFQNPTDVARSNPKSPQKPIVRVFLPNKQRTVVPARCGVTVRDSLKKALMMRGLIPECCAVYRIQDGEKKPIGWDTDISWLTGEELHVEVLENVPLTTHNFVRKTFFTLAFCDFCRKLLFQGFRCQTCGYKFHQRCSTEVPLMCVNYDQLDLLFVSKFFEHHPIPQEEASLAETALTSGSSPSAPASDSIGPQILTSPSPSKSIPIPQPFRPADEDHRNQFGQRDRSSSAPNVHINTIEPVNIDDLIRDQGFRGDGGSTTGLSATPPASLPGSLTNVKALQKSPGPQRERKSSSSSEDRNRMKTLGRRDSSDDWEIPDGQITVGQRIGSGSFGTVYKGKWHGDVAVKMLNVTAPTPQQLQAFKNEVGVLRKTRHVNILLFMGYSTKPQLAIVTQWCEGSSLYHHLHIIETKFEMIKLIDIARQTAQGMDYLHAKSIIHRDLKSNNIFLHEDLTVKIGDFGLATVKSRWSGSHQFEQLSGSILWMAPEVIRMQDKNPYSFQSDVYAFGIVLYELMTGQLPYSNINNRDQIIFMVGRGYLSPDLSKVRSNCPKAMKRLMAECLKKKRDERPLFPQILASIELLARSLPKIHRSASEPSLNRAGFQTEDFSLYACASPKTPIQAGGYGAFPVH
T2 sequence (P04818 2-313 limits assumed): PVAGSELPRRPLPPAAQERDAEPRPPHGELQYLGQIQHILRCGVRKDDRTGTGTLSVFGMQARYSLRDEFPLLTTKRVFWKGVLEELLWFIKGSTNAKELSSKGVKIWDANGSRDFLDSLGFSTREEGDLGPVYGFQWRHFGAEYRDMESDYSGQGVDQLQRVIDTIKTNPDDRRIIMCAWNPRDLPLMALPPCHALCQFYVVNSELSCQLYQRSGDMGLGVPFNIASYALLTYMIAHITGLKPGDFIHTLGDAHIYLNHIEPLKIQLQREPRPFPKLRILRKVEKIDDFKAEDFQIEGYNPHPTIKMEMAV
Chain of V600E variant B-raf protein (P15056 whole entry V600E): as the sequence (P15056 whole entry) above, with V600E counted along it

- apparent Tagg value (average±s.d.) ([1]; AlphaScreen detection, no inhibitor 46.7±0.7): 59.2±0.9 °C
- apparent Tagg value (average±s.d.) ([1]; western blot detection, no inhibitor 48±0.8): 60.6±1.0 °C
- screen outcome (increase of the AlphaScreen signal vs DMSO-only controls) [2]: stabilizing hits
SMILES: Cn1c(NC[C@@H](N)Cc2ccccc2)nc(-c2ccncc2)c(-c2ccc3ccccc3c2)c1=O [AMG-548]

- increase in the melting temperature [3]: ~6 °C
- increase in the melting temperature [4]: 3 °C
SMILES: CN(C)CCOc1ccc(-c2nc(-c3ccncc3)c(-c3ccc4c(c3)CC/C4=N\O)[nH]2)cc1 [SB590885]

- change of melting temperature of TS [5]: increased melting temperature
SMILES: Cc1nc2ccc(CN(C)c3ccc(C(=O)N[C@@H](CCC(=O)O)C(=O)O)s3)cc2c(=O)[nH]1 [raltitrexed]

- melting temperature after addition of inhibitor [6]: ~58 °C
SMILES: Oc1cccc(-c2nc(N3CCOCC3)c3sccc3n2)c1 [Compound 15e, 3-[4-(4-Morpholinyl)thieno[3,2-d]pyrimidin-2-yl]-phenol]

SMILES: CO[C@@H]1[C@H](OC(=O)NC(=O)CCl)CC[C@]2(CO2)[C@H]1[C@@]1(C)O[C@@H]1CC=C(C)C [TNP-470]
- shift in melting temperature [7]: 18 °C
- melting temperature after addition of ligand ([7]; without ligand 62° C.): 80 °C
- shift in melting temperature [8]: 14 °
- melting temperature after addition of ligand ([8]; without ligand 66° C.): 80 °C

- shift of the apparent Tagg (response) ([1]; 20 μM): lack of a substantial response
- thermal stabilization of p38α within the tested concentration range [9]: did not result in any stabilization
SMILES: Cc1cnc(Nc2ccc(F)cc2Cl)nc1-c1c[nH]c(C(=O)N[C@H](CO)c2cccc(Cl)c2)c1 [ERK 11e]
- screen outcome (increase of the AlphaScreen signal vs DMSO-only controls) [2]: cannot be distinguished from the rest of the inactive compounds
